# Measurements: publication PMC6627558, “Structures and Bioactivities of Six New Triterpene Glycosides, Psolusosides E, F, G, H, H1, and I and the Corrected Structure of Psolusoside B from the Sea Cucumber Psolus fabricii” (Marine Drugs, 2019)
# Where a name gives a salt, the structure may show the parent alone.
# Key:
# [1] = Cytotoxicity against neuroblastoma Neuro 2A cells (nonspecific esterase activity assay); type: cell-based, mouse; details: mouse neuroblastoma Neuro 2A cells
# Method: (§1) The museum tetraploid strain of murine ascite Ehrlich carcinoma cells from the All-Russian Oncology Center (Moscow, Russia) was used. The cells were separated from the ascites, which were collected on day 7 after inoculation in mouse CD-1 line. The cells were washed of the ascites triply and resuspended in RPMI-1640 medium containing 8 μg/mL gentamicin (BioloT, St-Petersburg, Russia). Neuroblastoma Neuro 2A cells were cultured in DMEM medium containing 10% fetal bovine serum (FBS), (BioloT, St-Petersburg, Russia) and normal epithelial JB-6 cells were cultured in DMEM medium containing 5% fetal bovine serum (FBS), (BioloT, St-Petersburg, Russia) and 1% penicillin/streptomycine (Invitrogen). The HT-29 (ATCC # HTB-38) human colon cancer cell line was grown in monolayer in McCoy’s 5A medium supplemented with 10% (v/v) heat-inactivated FBS, 2 mM L-glutamine, and 1% penicillin-streptomycin in a humidified atmosphere containing 5% CO2. Cells were maintained in a sterile environment and kept in an incubator at 5% CO2 and 37 °C to promote growth. HT-29 cells were sub-cultured every 3–4 days by rinsing with phosphate buffered saline (PBS), adding trypsin to detach the cells from the tissue culture flask, and transferring 10%–20% of the harvested cells to a new flask containing fresh growth media.
# (§2) Cytotoxic activity against ascite form of mouse Ehrlich carcinoma cells was investigated by nonspecific esterase activity assay. In total, 10µL of the test substance solution and 100 μL of the cell suspension were placed into each well of a 96-well microplate. The plate was incubated in a CO2 incubator at 37 °C for 1 or 24 h. A stock solution of the probe fluorescein diacetate (FDA; Sigma, St. Louis, MO, USA) in DMSO (1 mg/mL) was prepared. After incubation of the cells with test compounds, 10 μL of FDA solution (50 μg/mL) was added to each well and the plate was incubated at 37 °C for 15 min. Cells were washed with PBS, and fluorescence was measured with a Fluoroskan Ascent plate reader (Thermo Labsystems, Helsinky, Finland) at λex = 485 nm and λem = 518 nm. All experiments were repeated in triplicate. Cytotoxic activity was expressed as the percent of cell viability. Nonspecific esterase activity assay has been used for determination of cytotoxicity against neuroblastoma Neuro 2A and normal epithelial JB-6 cells.
# [2] = Hemolytic activity against mouse erythrocytes; type: cell-based; details: CD-1, mouse erythrocyte suspension, pH 7.4, 24 h at 37 °C, read-out: Cytotoxicity EC50, Erhythrocytes (hemolytic activity)
# Method: (§3) Blood was taken from CD-1 mice (18–20 g). The mice were anesthetized with diethyl ether, their chests were rapidly opened, and blood was collected in cold (4 °C) 10 mM phosphate-buffered saline, pH 7.4 (PBS) without anticoagulant. Erythrocytes were washed 3 times in PBS using at least 10 vol. of washing solution by centrifugation (2000 rpm) for 5 min. Erythrocytes were used at a concentration that provided an optical density of 1.0 at 700 nm for a non-hemolyzed sample. Then, 20 μL of a water solution of test substance with a fixed concentration was added to a well of a 96-well plate containing 180 μL of the erythrocyte suspension. Erythrocyte suspension was incubated with substances for 24 h at 37 °C. After that, the optical density of the obtained solutions was measured and ED50 for hemolytic activity of each compound was calculated.
# [3] = Cytotoxic activity against ascite form of mouse Ehrlich carcinoma cells (nonspecific esterase / MTT assay); type: cell-based; details: ascite form of mouse Ehrlich carcinoma cells; read-out: Cytotoxicity EC50, Ehrlich carcinoma
# Method: as §1, §2
# The solutions of tested substances in different concentrations (20 µL) and cell suspension (200 µL) were added in wells of 96-well plate and incubated over night at 37 °C and 5% CO2. After incubation, the cells were sedimented by centrifugation, 200 µL of medium from each well were collected, and 100 µL of pure medium were added. Then, 10 µL of MTT solution […] (Sigma, St. Louis, MO, USA) were added in each well. The plate was incubated for 4 h, after which 100 µL SDS-HCl were added to each well, and the plate was incubated at 37 °C for 4–18 h. Optical density was measured at 570 nm and 630–690 nm. Cytotoxic activity of the substances was calculated as the concentration that caused 50% metabolic cell activity inhibition (IC50). The MTT assay has been used for determination of cytotoxic activity against Ehrlich carcinoma cells.
# [4] = test system: human colorectal adenocarcinoma HT-29 cells; assay: Soft agar assay, colony formation and growth of HT-29 cells; type: cell-based; details: Homo sapiens, 336 h, 0–10 μM, 14 days, read-out: Soft Agar Assay ICCF50 (inhibition of colony formation)
# Method: as §1
# The HT-29 cells (8.0 × 10^3) were seeded in 6-well plate and treated with the tested compounds at concentrations range 0–10 μM in 1 mL of 0.3% Basal Medium Eagle (BME) agar containing 10% FBS, 2mM L-glutamine, and 25 μg/mL gentamicin. The cultures were maintained at 37 °C in a 5% CO2 incubator for 14 days, and the cell’s colonies were scored using a microscope “Motic AE 20” (Scientific Instrument Company, Campbell, CA, USA) and the Motic Image Plus version 2.0 (Scientific Instrument Company, Campbell, CA, USA) computer program.
# [5] = test system: human colorectal adenocarcinoma HT-29 cells; assay: MTS assay, cell viability of HT-29 cells; type: cell-based; details: Homo sapiens, 0–20 μM, 24 h
# Method: as §1
# The HT-29 cells (1.0 × 10^4/well) were seeded in 96-well plates for 24 h at 37 °C in 5% CO2 incubator. The cells were treated with the tested substances at concentrations range from 0 to 20 μM for an additional 24 h. Subsequently, cells were incubated with 15 μL MTS reagent for 3 h and the absorbance in each well was measured at 490/630 nm using microplate reader “Power Wave XS” (Bio Tek, Winooski, VT, USA). All the experiments were repeated three times, and the mean absorbance values were calculated. The results are expressed as the percentage of inhibition that produced a reduction in absorbance by compound’s treatment compared to the non-treated cells (control).
# [6] = test system: mouse neuroblastoma Neuro 2A cells; assay: Cytotoxicity against neuroblastoma Neuro 2A cells (nonspecific esterase activity assay); type: cell-based; details: Neuro 2A cells
# Method: as §1, §2
# [7] = test system: normal epithelial JB-6 cells; assay: Cytotoxicity against normal epithelial JB-6 cells (nonspecific esterase activity assay); type: cell-based, mouse; details: JB-6 cells
# Method: as §1, §2
# [8] = as above; type: cell-based, mouse; details: mouse, normal epithelial JB-6 cells
# Method: as §1, §2
# [9] = test system: mouse erythrocytes; assay: Hemolytic activity against mouse erythrocytes; type: cell-based
# Method: as §3
Compound,EC50 [1] [µM],EC50 at 24 h [2] [nM],EC50 [3] [µM],IC50 [4] [µM],IC50 [5] [µM],activity against Neuro 2A cells (in words) [6],cytotoxicity against normal JB-6 cells (in words) [7],EC50 [8] [µM],hemolytic activity (in words) [9]
"C=C(C)CCC[C@]1(C)OC(=O)[C@]23CC=C4[C@@H](CC[C@H]5C(C)(C)[C@@H](O[C@@H]6OC[C@@H](O)[C@H](O)[C@H]6O[C@@H]6O[C@H](C)[C@@H](O[C@@H]7O[C@H](COS(=O)(=O)O)[C@@H](O)[C@H](O[C@@H]8O[C@H](CO)[C@@H](O)[C@H](OC)[C@H]8O)[C@H]7O)[C@H](O)[C@H]6O)CC[C@]45C)[C@]2(C)CC(=O)[C@@H]31 [Psolusoside E (2), 3β-O-[3-O-methyl-β-D-glucopyranosyl-(1→3)-6-O-sodium-sulfate-β-D-glucopyranosyl-(1→4)-β-D-quinovopyranosyl-(1→2)-β-D-xylopyranosyl]-16-ketoholosta-9(11),25-diene]",3.96,230,55.8,0.1 ± 0.03,> 20,,,,
"C=C(C)CCC[C@]1(C)OC(=O)[C@]23CC=C4[C@@H](CC[C@H]5C(C)(C)[C@@H](O[C@@H]6OC[C@@H](O)[C@H](O)[C@H]6O[C@@H]6O[C@H](CO)[C@@H](O[C@@H]7O[C@H](COS(=O)(=O)O)[C@@H](O)[C@H](O[C@@H]8O[C@H](COS(=O)(=O)O)[C@@H](O)[C@H](OC)[C@H]8O)[C@H]7O)[C@H](O)[C@H]6O)CC[C@]45C)[C@]2(C)CC(=O)[C@@H]31 [Psolusoside G (4), 3β-O-[6-O-sodium-sulfate-3-O-methyl-β-D-glucopyranosyl-(1→3)-6-O-sodium-sulfate-β-D-glucopyranosyl-(1→4)-β-D-glucopyranosyl-(1→2)-β-D-xylopyranosyl]-16-ketoholosta-9(11),25-diene]",7.3,4200,98.3,,,high activity,not cytotoxic,> 100,
"C=C(C)CCC[C@]1(C)OC(=O)[C@]23CC=C4[C@@H](CC[C@H]5C(C)(C)[C@@H](O[C@@H]6OC[C@@H](O)[C@H](O)[C@H]6O[C@@H]6O[C@H](C)[C@@H](O[C@@H]7O[C@H](CO)[C@@H](O)[C@H](O[C@@H]8O[C@H](COS(=O)(=O)O)[C@@H](O)[C@H](OC)[C@H]8O)[C@H]7O)[C@H](O)[C@H]6O)CC[C@]45C)[C@]2(C)CC(=O)[C@@H]31 [Psolusoside F (3), 3β-O-[6-O-sodium-sulfate-3-O-methyl-β-D-glucopyranosyl-(1→3)-β-D-glucopyranosyl-(1→4)-β-D-quinovopyranosyl-(1→2)-β-D-xylopyranosyl]-16-ketoholosta-9(11),25-diene]",10.8,2800,96.2,0.5 ± 0.03,> 20,,,23.8,
"C=C(C)CCC[C@]1(C)OC(=O)[C@]23CC[C@@H]4C(=CC[C@H]5C(C)(C)[C@@H](O[C@@H]6OC[C@@H](O)[C@H](O)[C@H]6O[C@@H]6O[C@H](CO)[C@@H](O[C@@H]7O[C@H](COS(=O)(=O)O)[C@@H](O)[C@H](O)[C@H]7O)[C@H](O)[C@H]6O)CC[C@]45C)[C@]2(C)CC[C@@H]31 [Psolusoside H1 (6), 3β-O-[6-O-sodium-sulfate-β-D-glucopyranosyl-(1→4)-β-D-glucopyranosyl-(1→2)-β-D-xylopyranosyl]-holosta-7,25-diene]",10.7,2700,92.5,9 ± 0.3,> 20,,,32.3,
"C=C(C)CCC[C@]1(C)OC(=O)[C@]23CC[C@@H]4C(=CC[C@H]5C(C)(C)[C@@H](O[C@@H]6OC[C@@H](O[C@@H]7O[C@H](COS(=O)(=O)O)[C@@H](O)[C@H](O)[C@H]7O)[C@H](O)[C@H]6O[C@@H]6OC[C@@H](O[C@@H]7O[C@H](COS(=O)(=O)O)[C@@H](O)[C@H](O)[C@H]7O)[C@H](O)[C@H]6O)CC[C@]45C)[C@]2(C)C[C@H](OC(C)=O)[C@@H]31 [Psolusoside I (7), 3β-O-{6-O-sodium sulfate-β-D-glucopyranosyl-(1→4)-β-D-xylopyranosyl-(1→2)-[6-O-sodium sulfate-β-D-glucopyranosyl-(1→4)]-β-D-xylopyranosyl}-16β-acetoxyholosta-7,25-diene]",26.8,18300,87.4,10 ± 0.4,> 20,,,37.2,moderate hemolytic activity
"C=C(C)CCC[C@](C)(OC(C)=O)[C@H]1[C@@H]2C[C@@]3(C)C4=CC[C@H]5C(C)(C)[C@@H](O[C@@H]6OC[C@@H](O[C@@H]7O[C@H](CO)[C@@H](O)[C@H](O)[C@H]7OS(=O)(=O)O)[C@H](O)[C@H]6O[C@@H]6O[C@H](CO)[C@@H](O[C@@H]7O[C@H](COS(=O)(=O)O)[C@@H](O)[C@H](O)[C@H]7O)[C@H](O)[C@H]6O)CC[C@]5(C)[C@@H]4CC[C@]13C(=O)O2 [psolusoside B (1), 3β-O-{6-O-sodium sulfate-β-D-glucopyranosyl-(1→4)-β-D-glucopyranosyl-(1→2)-[2-O-sodium sulfate-β-D-glucopyranosyl-(1→4)]-β-D-xylopyranosyl}-9βH,20(S)-acetoxylanosta-7,25-diene-18(16)-lactone]",,,,> 10,> 20,,,,
"C=C(C)CCC[C@]1(C)OC(=O)[C@]23CC[C@@H]4C(=CC[C@H]5C(C)(C)[C@@H](O[C@@H]6OC[C@@H](O)[C@H](O)[C@H]6O[C@@H]6O[C@H](CO)[C@@H](O[C@@H]7O[C@H](COS(=O)(=O)O)[C@@H](O)[C@H](O)[C@H]7O)[C@H](O)[C@H]6O)CC[C@]45C)[C@]2(C)CC(=O)[C@@H]31 [Psolusoside H (5), 3β-O-[6-O-sodium-sulfate-β-D-glucopyranosyl-(1→4)-β-D-glucopyranosyl-(1→2)-β-D-xylopyranosyl]-16-ketoholosta-7,25-diene]",47.5,2500,> 100,> 10,> 20,,,43.2,
